Measurements: ChEMBL document CHEMBL1681651, “A broad spectrum anticancer nucleoside with selective toxicity against human colon cells in vitro” (2011)

How the values were obtained:
Type in all cases: functional
K562 [1] = experiment: Growth inhibition of human K562 cells assessed as cell growth at 1 mM after 48 hrs by SRB assay; settings: K562, 48 h, read-out: Activity
K562 [2] = experiment: Growth inhibition of human K562 cells assessed as cell growth at 0.1 uM after 48 hrs by SRB assay; settings: K562, 48 h, read-out: Activity
SW-620 [3] = experiment: Growth inhibition of human SW620 cells assessed as cell growth at 1 uM after 48 hrs by SRB assay; settings: SW-620, 48 h, read-out: Activity
T47D = experiment: Growth inhibition of human T47D cells assessed as cell growth at 100 uM after 48 hrs by SRB assay; settings: read-out: Activity
MOLT-4 [4] = experiment: Growth inhibition of human MOLT4 cells after 48 hrs by […] growth inhibition assay; settings: MOLT-4, 48 h
SR [5] = experiment: Growth inhibition of human SR cells assessed as cell growth at 100 uM after 48 hrs by SRB assay; settings: read-out: Activity
SW-620 [6] = experiment: Growth inhibition of human SW620 cells assessed as cell growth at 1 mM after 48 hrs by SRB assay; settings: SW-620, 48 h, read-out: Activity
M14 = experiment: Growth inhibition of human M14 cells assessed as cell growth at 0.1 uM after 48 hrs by SRB assay; settings: M14, 48 h, read-out: Activity
NCI/ADR-RES = experiment: Growth inhibition of human NCI/ADR-RES cells assessed as cell growth at 1 mM after 48 hrs by SRB assay; settings: read-out: Activity
[7] = Growth inhibition of human Hs 578T cells after 48 hrs by […] growth inhibition assay
[8] = Growth inhibition of human Hs 578T cells assessed as cell growth at 100 uM after 48 hrs by SRB assay; settings: read-out: Activity
[9] = Growth inhibition of human Hs 578T cells assessed as cell growth at 1 mM after 48 hrs by SRB assay; settings: read-out: Activity
K562 [10] = experiment: Growth inhibition of human K562 cells after 48 hrs by […] growth inhibition assay; settings: K562, 48 h
SW-620 [11] = experiment: Growth inhibition of human SW620 cells after 48 hrs by […] growth inhibition assay; settings: SW-620, 48 h
[12] = Growth inhibition of human Hs 578T cells assessed as cell growth at 1 uM after 48 hrs by SRB assay; settings: read-out: Activity
SW-620 [13] = experiment: Growth inhibition of human SW620 cells assessed as cell growth at 0.1 uM after 48 hrs by SRB assay; settings: SW-620, 48 h, read-out: Activity
SR [14] = experiment: Growth inhibition of human SR cells assessed as cell growth at 1 mM after 48 hrs by SRB assay; settings: read-out: Activity
MOLT-4 [15] = experiment: Growth inhibition of human MOLT4 cells assessed as cell growth at 100 uM after 48 hrs by SRB assay; settings: MOLT-4, 48 h, read-out: Activity
MDA-MB-231 [16] = experiment: Growth inhibition of human MDA-MB-231 cells assessed as cell growth at 1 mM after 48 hrs by SRB assay; settings: MDA-MB-231, 48 h, read-out: Activity
SK-MEL-28 [17] = experiment: Growth inhibition of human SK-MEL-28 cells assessed as cell growth at 1 mM after 48 hrs by SRB assay; settings: SK-MEL-28, 48 h, read-out: Activity
HL-60(TB) [18] = experiment: Growth inhibition of human HL-60(TB) cells after 48 hrs by […] growth inhibition assay; settings: HL-60, 48 h
MOLT-4 [19] = experiment: Growth inhibition of human MOLT4 cells assessed as cell growth at 0.1 uM after 48 hrs by SRB assay; settings: MOLT-4, 48 h, read-out: Activity
MDA-MB-231 [20] = experiment: Growth inhibition of human MDA-MB-231 cells assessed as cell growth at 100 uM after 48 hrs by SRB assay; settings: MDA-MB-231, 48 h, read-out: Activity
SW-620 [21] = experiment: Growth inhibition of human SW620 cells assessed as cell growth at 10 uM after 48 hrs by SRB assay; settings: SW-620, 48 h, read-out: Activity
K562 [22] = experiment: Growth inhibition of human K562 cells assessed as cell growth at 1 uM after 48 hrs by SRB assay; settings: K562, 48 h, read-out: Activity
SR [23] = experiment: Growth inhibition of human SR cells assessed as cell growth at 1 uM after 48 hrs by SRB assay; settings: read-out: Activity
SK-MEL-28 [24] = experiment: Growth inhibition of human SK-MEL-28 cells assessed as cell growth at 0.1 uM after 48 hrs by SRB assay; settings: SK-MEL-28, 48 h, read-out: Activity
HCT-116 = experiment: Growth inhibition of human HCT116 cells assessed as cell growth at 100 uM after 48 hrs by SRB assay; settings: HCT-116, 48 h, read-out: Activity
IGROV-1 = experiment: Growth inhibition of human IGROV1 cells assessed as cell growth at 1 mM after 48 hrs by SRB assay; settings: IGROV-1, 48 h, read-out: Activity
HL-60(TB) [25] = experiment: Growth inhibition of human HL-60(TB) cells assessed as cell growth at 0.1 uM after 48 hrs by SRB assay; settings: HL-60, 48 h, read-out: Activity
[26] = Growth inhibition of human Hs 578T cells assessed as cell growth at 0.1 uM after 48 hrs by SRB assay; settings: read-out: Activity
MOLT-4 [27] = experiment: Growth inhibition of human MOLT4 cells assessed as cell growth at 1 uM after 48 hrs by SRB assay; settings: MOLT-4, 48 h, read-out: Activity
SR [28] = experiment: Growth inhibition of human SR cells assessed as cell growth at 0.1 uM after 48 hrs by SRB assay; settings: read-out: Activity
HL-60(TB) [29] = experiment: Growth inhibition of human HL-60(TB) cells assessed as cell growth at 1 mM after 48 hrs by SRB assay; settings: HL-60, 48 h, read-out: Activity
[30] = read-out: LC50 (the source's name)
[31] = read-out: pLC50 (the source's name) (converted)

CNC(=O)NC[C@H]1O[C@@H](n2cnc3c(NC(=O)Nc4ccccc4)ncnc32)[C@H](O[Si](C)(C)C(C)(C)C)[C@@H]1CC(=O)N(C)OC
growth at 1000 µM (K562 [1]): 24%
growth at 0.1 µM (K562 [2]): 95%
growth at 1 µM (SW-620 [3]): 102%
growth at 100 µM (T47D): 56%
GI50 (MOLT-4 [4]; read-out: GI50): 2.13 µM
LC50 (MOLT-4 [4]; read-out: LC50): > 100 µM
TGI (MOLT-4 [4]; read-out: TGI): 9.36 µM
GI50 (MOLT-4 [4]; read-out: pGI50 (converted)): 2.24 µM
LC50 (MOLT-4 [4]; read-out: pLC50 (converted)): > 100 µM
TGI (MOLT-4 [4]; read-out: pTGI (converted)): 9.33 µM
growth at 100 µM (SR [5]): -53%
growth at 1000 µM (SW-620 [6]): 50%
growth at 0.1 µM (M14): 98%
growth at 1000 µM (NCI/ADR-RES): 55%
GI50 ([7]; read-out: GI50): 5.79 µM
CC50 [7, 30]: > 100 µM
TGI ([7]; read-out: TGI): > 100 µM
GI50 ([7]; read-out: pGI50 (converted)): 5.75 µM
CC50 [7, 31]: > 100 µM
TGI ([7]; read-out: pTGI (converted)): > 100 µM
growth at 100 µM [8]: 40%
growth at 1000 µM [9]: 12%
GI50 (K562 [10]; read-out: GI50): 3.12 µM
LC50 (concentration killing 50% of cells) (K562 [10]; read-out: LC50): > 100 µM
TGI (K562 [10]; read-out: TGI): > 100 µM
GI50 (K562 [10]; read-out: pGI50 (converted)): 3.09 µM
LC50 (concentration killing 50% of cells) (K562 [10]; read-out: pLC50 (converted)): > 100 µM
TGI (K562 [10]; read-out: pTGI (converted)): > 100 µM
GI50 (SW-620 [11]; read-out: GI50): > 100 µM
CC50 (SW-620 [11]; [30]): > 100 µM
TGI (SW-620 [11]; read-out: TGI): > 100 µM
GI50 (SW-620 [11]; read-out: pGI50 (converted)): > 100 µM
CC50 (SW-620 [11]; [31]): > 100 µM
TGI (SW-620 [11]; read-out: pTGI (converted)): > 100 µM
growth at 1 µM [12]: 98%
growth at 0.1 µM (SW-620 [13]): 99%
growth at 1000 µM (SR [14]): -56%
growth at 100 µM (MOLT-4 [15]): -2%
growth at 1000 µM (MDA-MB-231 [16]): 5%
growth at 1000 µM (SK-MEL-28 [17]): 27%
GI50 (HL-60(TB) [18]; read-out: GI50): 1.81 µM
CC50 (HL-60(TB) [18]; [30]): > 100 µM
TGI (HL-60(TB) [18]; read-out: TGI): 4.34 µM
GI50 (HL-60(TB) [18]; read-out: pGI50 (converted)): 1.82 µM
CC50 (HL-60(TB) [18]; [31]): 16.2 µM
TGI (HL-60(TB) [18]; read-out: pTGI (converted)): 4.37 µM
growth at 0.1 µM (MOLT-4 [19]): 96%
growth at 100 µM (MDA-MB-231 [20]): 55%
growth at 10 µM (SW-620 [21]): 93%
growth at 1 µM (K562 [22]): 95%
growth at 1 µM (SR [23]): 89%
growth at 0.1 µM (SK-MEL-28 [24]): 97%
growth at 100 µM (HCT-116): 26%
growth at 1000 µM (IGROV-1): -6%
growth at 0.1 µM (HL-60(TB) [25]): 95%
growth at 0.1 µM [26]: 98%
growth at 1 µM (MOLT-4 [27]): 90%
growth at 0.1 µM (SR [28]): 85%
growth at 1000 µM (HL-60(TB) [29]): -58%
